Experimental data from patent publication US11963519B2 (priority 2022, dated 2024).
Values joined by “and” are separate entries in the source; they are usually repeats but may differ in a detail not shown here. Equal values may be shown once.

Assays:
[1] = system: CD-1 mice; type: in vivo, mouse
[2] = system: CD-1 mice; type: in vivo, mouse; remark: listed apart in the source
[3] = system: CD-1 mice; conditions: mouse, in vivo

Molecule	exploratory behaviors in open-field test of BCG+PTX model mice ([1]; mouse, in vivo)	exploratory behaviors in open-field test of depression model mice ([1]; mouse, in vivo)	number of times of zone crossing in open-field test of BCG+PTX model mice ([1]; mouse, in vivo)	number of times of zone crossing in open-field test of depression model mice ([1]; mouse, in vivo)	total movement distance in open-field test of BCG+PTX model mice ([1]; mouse, in vivo)	total movement distance in open-field test of depression model mice ([1]; mouse, in vivo)	motionlessness time (behavioral despair state) in TST of BCG+PTX model mice ([2]; mouse, in vivo)	sucrose preference rate in depression model mice [3]	Open-field test Number of times of exploratory behaviors ([1]; n=12)	Open-field test Number of times of zone crossing ([1]; n=12)	Open-field test Total movement distance ([1]; n=12)	TST Motionlessness time ([2]; n=12)
CN(C)CCCN1c2ccccc2CCc2ccccc21 [IMI, imipramine]	increased	decreased	increased	decreased	increased	decreased	improved	significantly reduce	–	–	–	–
Bacille Calmette-Guerin [BCG]	–	–	–	–	–	–	–	–	23.83 ± 12.41 and 38.92 ± 15.96	104.91 ± 35.1528 and 138.73 ± 23.44	582.74 ± 211.42 cm and 734.20 ± 349.87 cm	122.60 ± 34.11 s and 98.84 ± 21.35 s
